According to US10039753B2, “Imidazo[4,5-c]quinoline and imidazo[4,5-c][1,5]naphthyridine derivatives as LRRK2 inhibitors” (Pfizer Inc., priority 2015, dated 2018):
Where a name gives a salt, the structure may show the parent alone.

Key:
[1] = target: T1, GST-tagged truncated LRRK2 (Homo sapiens, UniProt Q5S007); assay: LRRK2 Assay, Format 1 (Lantha Screen), WT; assay type: biochemical
T1 construct: GST-tagged truncated LRRK2 from Invitrogen (Cat # PV4874); GST; purchased Invitrogen PV4874
Experimental: LRRK2 kinase activity was measured using Lantha Screen technology from Invitrogen. GST-tagged truncated LRRK2 from Invitrogen (Cat # PV4874) was incubated with a fluorescein-labeled peptide substrate based upon ezrin/radixin/moesin (ERM), also known as LRRKtide (Invitrogen cat # PR8976A), in the presence of a dose response of compound. Upon completion, the assay was stopped and detected with a terbium labeled anti-phospho-ERM antibody (Invitrogen, cat # PR8975A). […] Aliquots (3.5 μL) of the 100% DMSO dose response were mixed with 46.5 μL water then 1 μL of this mixture was added to the 3 μL substrate mix in the 384-well plate. The kinase reaction was started with 3 μL of a working solution of LRRK2 enzyme at a concentration of 4 μg/mL. […] The reaction was allowed to progress at room temperature for two hours and then stopped with the addition of 7 μL of detection buffer (20 mM Tris pH 7.6, 0.01% NP-40, 0.02% NaN3, 6 mM EDTA with 2 nM terbium labeled anti-phospho-ERM).

mutant G2019S LRRK2 [2] = target: T2, mutant G2019S LRRK2 (Homo sapiens, UniProt Q5S007, G2019S); assay: LRRK2 Assay, Format 1 (Lantha Screen), G2019S mutant
T2 sequence (Q5S007 970-2527 G2019S limits assumed): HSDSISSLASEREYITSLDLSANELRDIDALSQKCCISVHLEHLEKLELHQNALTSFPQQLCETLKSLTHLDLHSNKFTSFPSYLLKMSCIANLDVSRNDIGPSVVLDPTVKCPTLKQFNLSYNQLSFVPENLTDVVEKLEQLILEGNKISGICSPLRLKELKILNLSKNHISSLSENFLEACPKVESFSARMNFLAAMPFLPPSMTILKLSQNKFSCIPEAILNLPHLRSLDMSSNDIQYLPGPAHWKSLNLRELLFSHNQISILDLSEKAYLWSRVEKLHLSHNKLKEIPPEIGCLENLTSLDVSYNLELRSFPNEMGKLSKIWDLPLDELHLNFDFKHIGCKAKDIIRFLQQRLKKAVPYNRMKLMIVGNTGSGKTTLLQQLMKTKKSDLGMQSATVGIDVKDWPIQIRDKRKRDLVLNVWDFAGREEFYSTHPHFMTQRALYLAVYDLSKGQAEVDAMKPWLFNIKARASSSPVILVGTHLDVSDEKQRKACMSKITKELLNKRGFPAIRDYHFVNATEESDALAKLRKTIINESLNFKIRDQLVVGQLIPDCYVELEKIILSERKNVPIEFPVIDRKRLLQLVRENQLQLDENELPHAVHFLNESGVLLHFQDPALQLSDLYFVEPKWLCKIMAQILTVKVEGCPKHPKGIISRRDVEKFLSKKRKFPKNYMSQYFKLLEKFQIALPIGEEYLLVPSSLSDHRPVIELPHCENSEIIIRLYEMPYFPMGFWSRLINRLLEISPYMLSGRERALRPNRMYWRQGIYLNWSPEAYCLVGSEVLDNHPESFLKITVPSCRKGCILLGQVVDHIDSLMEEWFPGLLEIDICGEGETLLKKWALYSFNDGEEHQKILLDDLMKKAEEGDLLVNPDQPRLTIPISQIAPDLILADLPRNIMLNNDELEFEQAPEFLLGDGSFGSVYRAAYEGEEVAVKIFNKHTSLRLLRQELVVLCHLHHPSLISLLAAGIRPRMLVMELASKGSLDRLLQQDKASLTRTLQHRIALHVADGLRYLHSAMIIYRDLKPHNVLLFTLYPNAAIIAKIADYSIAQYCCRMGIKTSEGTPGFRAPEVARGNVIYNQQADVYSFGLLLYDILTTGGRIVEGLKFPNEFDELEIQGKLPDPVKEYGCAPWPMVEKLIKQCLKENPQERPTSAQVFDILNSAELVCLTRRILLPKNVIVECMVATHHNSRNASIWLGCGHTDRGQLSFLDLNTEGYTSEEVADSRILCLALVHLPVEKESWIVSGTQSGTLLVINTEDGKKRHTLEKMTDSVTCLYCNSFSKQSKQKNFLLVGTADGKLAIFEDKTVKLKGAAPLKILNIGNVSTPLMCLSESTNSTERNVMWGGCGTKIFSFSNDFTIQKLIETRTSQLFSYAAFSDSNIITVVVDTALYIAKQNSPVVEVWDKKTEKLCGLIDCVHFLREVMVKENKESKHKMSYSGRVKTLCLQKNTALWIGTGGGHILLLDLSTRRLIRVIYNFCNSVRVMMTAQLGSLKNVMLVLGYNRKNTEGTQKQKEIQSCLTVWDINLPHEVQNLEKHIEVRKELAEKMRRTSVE

[3] = target: T1, GST-tagged truncated LRRK2; assay: LRRK2 Assay, Format 2 (Lantha Screen), WT; assay type: biochemical; conditions: geometric mean of 2-4 determinations unless otherwise indicated (a: >=5; b: single determination)
mutant G2019S LRRK2 [4] = target: T2, mutant G2019S LRRK2; assay: LRRK2 Assay, Format 2 (Lantha Screen), G2019S mutant; assay type: biochemical; design: purchased Invitrogen PV4881; conditions: geometric mean of 2-4 determinations unless otherwise indicated (a: >=5; b: single determination); read-out: LRRK2, Format 2 G2019S IC50
[5] = Format 1, wild-type LRRK2, geometric mean of 2-4 determinations unless footnoted (a: ≥5 determinations; b: single determination; c: determined on trifluoroacetate salt)
[6] = 100 nM LRRKtide, 50 μM ATP, 1.7 μg/mL LRRK2 enzyme, two hours at room temperature

T1 sequence (Q5S007 970-2527 limits assumed): as the sequence (Q5S007 970-2527 G2019S limits assumed) above, with S1050G counted along it

Cc1nc2cnc3ccccc3c2n1[C@H]1CCO[C@@H](C)C1 (racemic) [Example 15, 2-methyl-1-(cis-2-methyltetrahydro-2H-pyran-4-yl)-1H-imidazo[4,5-c]quinoline]
IC50 [1, 5]: 187 nM
IC50 (mutant G2019S LRRK2 [2]): 257 nM

Cc1nc2cnc3ccc(C#N)cc3c2n1[C@H]1CCO[C@@H](C)C1 (racemic) [Example 19, 2-methyl-1-(cis-2-methyltetrahydro-2H-pyran-4-yl)-1H-imidazo[4,5-c]quinoline-8-carbonitrile]
IC50 [1, 5]: 81 nM
IC50 (mutant G2019S LRRK2 [2]): 55.5 nM

C[C@H]1C[C@@H](n2c(Cc3ccon3)nc3cnc4ccc(C#N)cc4c32)CCO1 (racemic) [Example 21, 1-(cis-2-methyltetrahydro-2H-pyran-4-yl)-2-(1,2-oxazol-3-ylmethyl)-1H-imidazo[4,5-c]quinoline-8-carbonitrile]
IC50 [1, 5]: 7.5 nM
IC50 (mutant G2019S LRRK2 [2]): 4.5 nM

C[C@@H]1C[C@@H](n2c(Cc3ccon3)nc3cnc4ccc(C#N)cc4c32)CCO1 (racemic) [Example 23, 1-(trans-2-methyltetrahydro-2H-pyran-4-yl)-2-(1,2-oxazol-3-ylmethyl)-1H-imidazo[4,5-c]quinoline-8-carbonitrile]
IC50 [1, 5]: 199 nM
IC50 (mutant G2019S LRRK2 [2]): 153 nM

O[C@@H]1CCC[C@@H](n2c(Cc3ccon3)nc3cnc4ccccc4c32)C1 (racemic) [Example 49, trans-3-[2-(1,2-oxazol-3-ylmethyl)-1H-imidazo[4,5-c]quinolin-1-yl]cyclohexanol]
IC50 [1, 5]: 152 nM
IC50 (mutant G2019S LRRK2 [2]): 81.2 nM

C[C@H]1C[C@@H](n2c(Cc3cscn3)nc3cnc4ccc(Br)cc4c32)CCO1 (racemic) [Example 56, 8-bromo-1-(cis-2-methyltetrahydro-2H-pyran-4-yl)-2-(1,3-thiazol-4-ylmethyl)-1H-imidazo[4,5-c]quinoline]
IC50 [1, 5]: 10 nM
IC50 (mutant G2019S LRRK2 [2]): 5.2 nM

Cc1cc(Cc2nc3cnc4ccc(Br)cc4c3n2[C@H]2CCO[C@@H](C)C2)no1 (racemic) [Example 58, 8-bromo-2-[(5-methyl-1,2-oxazol-3-yl)methyl]-1-(cis-2-methyltetrahydro-2H-pyran-4-yl)-1H-imidazo[4,5-c]quinoline]
IC50 [1, 5]: 16.8 nM
IC50 (mutant G2019S LRRK2 [2]): 8.2 nM

CC[C@H]1C[C@@H](n2c(Cc3ccon3)nc3cnc4ccc(Br)cc4c32)CCO1 (racemic) [Example 66, 8-bromo-1-(cis-2-ethyltetrahydro-2H-pyran-4-yl)-2-(1,2-oxazol-3-ylmethyl)-1H-imidazo[4,5-c]quinoline]
IC50 [1, 5]: 32.5 nM
IC50 (mutant G2019S LRRK2 [2]): 16.4 nM

C[C@H]1C[C@@H](n2c(Cc3cn4ncsc4n3)nc3cnc4ccc(F)cc4c32)CCO1 (racemic) [Example 86, 8-fluoro-2-(imidazo[2,1-b][1,3,4]thiadiazol-6-ylmethyl)-1-(cis-2-methyltetrahydro-2H-pyran-4-yl)-1H-imidazo[4,5-c]quinoline]
IC50 [1, 5]: 7.6 nM
IC50 (mutant G2019S LRRK2 [2]): 5.6 nM

Cc1nc2cnc3ccccc3c2n1[C@H]1CCO[C@@H](CC#N)C1 (racemic) [Example 91, [cis-4-(2-methyl-1H-imidazo[4,5-c]quinolin-1-yl)tetrahydro-2H-pyran-2-yl]acetonitrile]
IC50 [1, 5]: 18.7 nM
IC50 (mutant G2019S LRRK2 [2]): 12.2 nM

COc1ccc2ncc3nc(Cc4cc(C)on4)n([C@@H]4CCO[C@H](C)C4)c3c2c1 (single isomer, unassigned) [Example 1]
IC50 [1, 5]: 39.3 nM
IC50 (mutant G2019S LRRK2 [2]): 14.4 nM

C[C@@H]1C[C@H](n2c(Cc3ccon3)nc3cnc4ccc(Br)cc4c32)CCO1 (single isomer, unassigned) [Example 12]
IC50 [1, 5]: 4.5 nM
IC50 (mutant G2019S LRRK2 [2]): 2.4 nM

C[C@H]1C[C@@H](n2c(Cc3cn4ncsc4n3)nc3cnc4ccc(Cl)cc4c32)CCO1 (single isomer, unassigned) [Example 64]
IC50 [1, 5]: 279 nM
IC50 (mutant G2019S LRRK2 [2]): 132 nM

C[C@@H]1C[C@H](n2c(Cn3cncn3)nc3cnc4ccc(Cl)cc4c32)CCO1 (single isomer, unassigned) [Example 65]
IC50 [1, 5]: 2.8 nM
IC50 (mutant G2019S LRRK2 [2]): 1.8 nM

COc1ccc2ncc3nc(Cc4cc(C)on4)n([C@H]4CCO[C@@H](C)C4)c3c2c1 (single isomer, unassigned) [Example C12]
IC50 [1, 5]: 1260 nM
IC50 (mutant G2019S LRRK2 [2]): 478 nM

C[C@H]1C[C@@H](n2c(Cc3ccon3)nc3cnc4ccc(Br)cc4c32)CCO1 (single isomer, unassigned) [enantiomer of Example 12]
IC50 [1, 6]: 510 nM
IC50 (mutant G2019S LRRK2 [2]): 226 nM

Cc1cc(Cc2nc3cnc4ccc(Cl)cc4c3n2C2CCOC(CC#N)C2)no1 (single isomer, unassigned; ent-2) [enantiomer of Example 134, [cis-4-{8-chloro-2-[(5-methyl-1,2-oxazol-3-yl)methyl]-1H-imidazo[4,5-c]quinolin-1-yl}tetrahydro-2H-pyran-2-yl]acetonitrile, ENT-2]
IC50 [1, 6]: 353 nM
IC50 (mutant G2019S LRRK2 [2]): 327 nM

Cc1cc(Cc2nc3cnc4ccc(C#N)cc4c3n2[C@H]2CC[C@@H](F)C2)no1 [Example 241, 1-[(1S,3R)-3-fluorocyclopentyl]-2-[(5-methyl-1,2-oxazol-3-yl)methyl]-1H-imidazo[4,5-c]quinoline-8-carbonitrile, formate salt]
IC50 [3]: 29.3 nM
IC50 (mutant G2019S LRRK2 [4]): 33.5 nM

Cc1cc(Cc2nc3cnc4ccc(C#N)cc4c3n2[C@@H](C)CF)no1 [Example 243, 1-[(2S)-1-fluoropropan-2-yl]-2-[(5-methyl-1,2-oxazol-3-yl)methyl]-1H-imidazo[4,5-c]quinoline-8-carbonitrile, formate salt]
IC50 [3]: 48.7 nM
IC50 (mutant G2019S LRRK2 [4]): 85.9 nM

Cc1cc(Cc2nc3cnc4ccc(C#N)cc4c3n2C2CCCC(F)(F)C2)no1 (centres unmarked) [Example 244, 1-(3,3-difluorocyclohexyl)-2-[(5-methyl-1,2-oxazol-3-yl)methyl]-1H-imidazo[4,5-c]quinoline-8-carbonitrile, formate salt]
IC50 [3]: 79.4 nM
IC50 (mutant G2019S LRRK2 [4]): 89.7 nM

Cc1cc(Cc2nc3cnc4ccc(C#N)cc4c3n2C2CCC(F)(F)C2)no1 (centres unmarked) [Example 246, 1-(3,3-difluorocyclopentyl)-2-[(5-methyl-1,2-oxazol-3-yl)methyl]-1H-imidazo[4,5-c]quinoline-8-carbonitrile, formate salt]
IC50 [3]: 65 nM
IC50 (mutant G2019S LRRK2 [4]): 86.5 nM

Cc1cc(Cc2nc3cnc4ccc(C#N)cc4c3n2[C@H]2CC[C@](C)(O)CC2)no1 [Example 247, 1-(trans-4-hydroxy-4-methylcyclohexyl)-2-[(5-methyl-1,2-oxazol-3-yl)methyl]-1H-imidazo[4,5-c]quinoline-8-carbonitrile, formate salt]
IC50 [3]: 85.1 nM
IC50 (mutant G2019S LRRK2 [4]): 59.5 nM

Cc1cc(Cc2nc3cnc4ccc(C#N)cc4c3n2CC(C)(F)F)no1 [Example 248, 1-(2,2-difluoropropyl)-2-[(5-methyl-1,2-oxazol-3-yl)methyl]-1H-imidazo[4,5-c]quinoline-8-carbonitrile]
IC50 [3]: 15 nM
IC50 (mutant G2019S LRRK2 [4]): 17.7 nM

C[C@@H]1C[C@H](n2c(Cc3cnccn3)nc3cnc4ccc(Cl)cc4c32)CCO1 [Example 249, 8-chloro-1-[(2R,4R)-2-methyltetrahydro-2H-pyran-4-yl]-2-(pyrazin-2-ylmethyl)-1H-imidazo[4,5-c]quinoline, trifluoroacetate salt]
IC50 [3]: 16.9 nM
IC50 (mutant G2019S LRRK2 [4]): 18.6 nM

C[C@@H]1C[C@H](n2c(Cc3ccccn3)nc3cnc4ccc(Cl)cc4c32)CCO1 [Example 250, 8-chloro-1-[(2R,4R)-2-methyltetrahydro-2H-pyran-4-yl]-2-(pyridin-2-ylmethyl)-1H-imidazo[4,5-c]quinoline, formate salt]
IC50 [3]: 10.4 nM
IC50 (mutant G2019S LRRK2 [4]): 11 nM
